In PubChem BioAssay AID1259334 (Broad Institute, 2017) one finds AC50 data, which are given here for 55 compounds.

The structures appear in SMILES notation. Active and inactive are the calls of the source. No stated cut-off is given here; in the data, active means AC50 below about 11 µM.

The assay has as its system B cell line, TNFa signaling counterscreen reporter. In words: TNFa signaling inhibitors in B cell line, dose response, counter-screen (AID 1259334).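 Further: cells stimulated with TNFa after compound preincubation.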

By AC50 is commonly meant the concentration giving half of the maximal activity seen. With `CCC(C)[C@H]1O[C@]2(CC[C@@H]1C)C[C@@H]1C[C@@H](C/C=C(\C)[C@@H](OC3C[C@H](OC)C(O[C@H]4C[C@H](OC)[C@@H](O)[C@H](C)O4)[C@H](C)O3)[C@@H](C)/C=C/C=C3\CO[C@@H]4[C@H](O)C(C)=C[C@@H](C(=O)O1)[C@]34O)O2` (stereo not given in full), the AC50 is > 20 µM (inactive).

As for `COc1c(-c2coc3cc4c(cc3c2=O)CC(O)C(C)(C)O4)ccc2c1C=CC(C)(C)O2` (stereo not given), the AC50 is 11 µM.

Turning to `O=C1c2c(O)ccc(O)c2C(=O)c2c(NCCNCCO)ccc(NCCNCCO)c21`, the AC50 was 1.18 µM.

`Cc1ccc(-c2cc(C(=O)N(C)CC(=O)Nc3ccccc3Br)c3ccccc3n2)o1`: the AC50 is 11.1 µM.

With `CC1CC(C)(O)CC(C(O)CC2CC(=O)NC(=O)C2)C1=O` (stereo not given), the AC50 is 0.0899 µM.

Turning to `COc1ccc(C[C@H]2NC[C@H](O)[C@H]2OC(C)=O)cc1`, the AC50 is 0.0144 µM.

Take `C[C@H]1O[C@@H](O[C@H]2[C@@H](O)C[C@H](O[C@H]3[C@@H](O)C[C@H](O[C@H]4CC[C@]5(C)C6C[C@@H](O)[C@]7(C)[C@@H](C8=CC(=O)OC8)CC[C@]7(O)C6CC[C@@H]5C4)O[C@@H]3C)O[C@@H]2C)C[C@H](O)[C@@H]1O` (stereo not given in full): the AC50 was 0.697 µM.

Turning to `O=C1C(O)CC2c3ccccc3CC3(CCCC3)N12` (stereo not given), the AC50 is > 20 µM (inactive).

On to `O=C(Nc1cccc(N2C(=O)C=CC2=O)c1)c1cccs1`, for which the half-maximal activity concentration (AC50) is 1.22 µM.

For `O=C(COC(=O)c1ccccc1C(=O)c1ccc(Cl)c([N+](=O)[O-])c1)NC1CC1`, the AC50 is 1.47 µM.

Consider `CC1CC(C)C(=O)C(C(CC2CC(=O)NC(=O)C2)OC(=O)CC(=O)c2ccccc2)C1` (stereo not given), for which the AC50 is 2.17 µM.

For the compound `Clc1ccc(COC(Cn2ccnc2)c2ccc(Cl)cc2Cl)c(Cl)c1` (stereo not given), the AC50 was 8.2 µM.

In the case of `CCCNC(=O)N1[C@@H](C#N)[C@H](c2ccc(-c3cccc(OC)c3)cc2)[C@@H]1CO`, the AC50 was > 20 µM (inactive).

On to `Cc1[nH]c2ccccc2c1C(c1ccccn1)N1CCC(C(N)=O)CC1` (stereo not given), for which the AC50 is 6 µM.

Consider `COc1cccc2c1C(=O)c1c(O)c3c(c(O)c1C2=O)C[C@@](O)(C(C)=O)C[C@@H]3O[C@H]1C[C@H](N)[C@H](O)[C@H](C)O1`, for which the AC50 is 0.359 µM.

With `O=C(CCN1CCC(c2ccccc2)C1)c1ccc2c(c1)OCCO2` (stereo not given), the AC50 is 6.18 µM.

Consider `CC(C)[C@H](CO)Nc1nc(Nc2cccc(Cl)c2)c2ncn(C(C)C)c2n1`, for which the half-maximal activity concentration (AC50) was 3.58 µM.

`CCCCn1c(NC(=O)c2ccc(Br)o2)c(S(=O)(=O)c2ccccc2)c2nc3ccccc3nc21`: the AC50 was 9.82 µM.

On to `C[C@@H]1CN([C@@H](C)CO)C(=O)c2c(c3ccccc3n2C)-c2ccccc2CO[C@H]1CN(C)C(=O)Nc1ccccc1C(F)(F)F`, for which the AC50 was 8.9 µM.

As to `COc1ccc(C#Cc2ccc([C@H]3[C@H]4CN(C(=O)c5ccncc5)CCCCN4[C@H]3CO)cc2)cc1`, the AC50 is 8.29 µM.

In the case of `COc1cccc(-c2cc(=O)c3cc(OC)ccc3o2)c1`, the AC50 was 3.07 µM.

With `CCc1csc(N2[C@H](C#N)[C@H](c3ccc(C#Cc4ccc(F)cc4)cc3)[C@H]2CO)n1`, the AC50 was > 20 µM (inactive).

For the compound `C[C@@H]1CN([C@H](C)CO)C(=O)c2c(c3ccccc3n2C)-c2ccccc2CO[C@H]1CN(C)C(=O)c1cc(Cl)cc(Cl)c1`, the AC50 was > 20 µM (inactive).

For the compound `CCCCNC(=O)C1(C)CCN1C(=O)c1cc(-c2cccs2)oc1C` (stereo not given), the concentration at half-maximal activity (AC50) was 2.59 µM.

Turning to `CCCn1c(NC(=O)c2cccc(S(=O)(=O)N3CCCC3)c2)nc2ccccc21`, the half-maximal activity concentration (AC50) is 2.61 µM.

For the compound `NCCOc1ccc(C23CC4CC(CC(C4)C2)C3)cc1`, the AC50 was 4.61 µM.

Turning to `c1ccc2sc(-c3ccc4c(c3)OCO4)nc2c1`, the AC50 was 8.09 µM.

As to `C[C@@H]1CN([C@H](C)CO)C(=O)c2cc(NS(=O)(=O)c3cccs3)ccc2O[C@@H](C)CCCCO[C@H]1CN(C)Cc1ccc(Cl)c(Cl)c1`, the AC50 is > 20 µM (inactive).

On to `COC(=O)C1=C(C)NC(C)=C(C(=O)OCCCN2CCC(c3ccccc3)(c3ccccc3)CC2)[C@H]1c1cccc([N+](=O)[O-])c1`, for which the AC50 was 4.12 µM.

On to `COc1ccc(S(=O)(=O)Nc2ccc3c(c2)C(=O)N([C@H](C)CO)C[C@H](C)[C@@H](CN(C)Cc2ccc(C(F)(F)F)cc2)OCCCC[C@@H](C)O3)cc1`, for which the AC50 is 8.37 µM.

`O=C1CC(c2ccc3c(c2)OCO3)Sc2nc3ccccc3n21` (stereo not given): the AC50 was 3.83 µM.

As to `C[C@H]1CN([C@@H](C)CO)C(=O)c2ccccc2-c2ccccc2CO[C@@H]1CN(C)Cc1ccccc1C(F)(F)F`, the AC50 was 7.26 µM.

As to `C[C@@H]1CN([C@H](C)CO)C(=O)c2ccccc2-c2ccccc2CO[C@@H]1CN(C)Cc1ccccc1C(F)(F)F`, the AC50 is 10.7 µM.

Turning to `Cn1cnc([N+](=O)[O-])c1S(=O)(=O)Oc1cccc2ccccc12`, the AC50 is 0.397 µM.

Take `C=C1C(=O)O[C@H]2[C@H]1CC/C(C)=C/CC[C@@]1(C)O[C@@H]21`: the AC50 was 3.54 µM.

`N#C[C@H]1[C@H](c2ccc(C#Cc3ccccc3F)cc2)[C@@H](CO)N1C(=O)c1cccnc1`: the AC50 was 9.37 µM.

In the case of `CS(=O)(=O)c1ccc(C(=O)OCC(=O)NC(=O)C2COc3ccccc3O2)cc1[N+](=O)[O-]` (stereo not given), the concentration at half-maximal activity (AC50) was 5.1 µM.

Consider `N#CC(C#N)=NNc1cccc(Cl)c1`, for which the AC50 was 9.25 µM.

In the case of `Cc1cc(C)cc(N2C(=O)CC(Sc3nnnn3-c3ccccc3)C2=O)c1` (stereo not given), the AC50 is 0.728 µM.

Turning to `Cc1ccc2c(c1)C(O)(CC(=O)/C=C/C=C/c1ccccc1)C(=O)N2` (stereo not given), the AC50 was > 20 µM (inactive).

Take `Cc1ccc(S(=O)(=O)CCC(=O)N(CCCN2CCOCC2)c2nc3ccccc3s2)cc1`: the AC50 is 7.38 µM.

Regarding `C[n+]1c(-c2ccccc2)cc2c(=Cc3ccc([N+](=O)[O-])cc3)c3ccccc3n21`, the AC50 was 2.96 µM.

Turning to `O=C(C1CCCC1)N1CC(=O)N2[C@@H](CO)[C@@H](c3ccc(C#CCc4ccccc4)cc3)[C@@H]2C1`, the AC50 was 1.7 µM.

For the compound `C[C@@H]1CN([C@@H](C)CO)C(=O)c2ccccc2-c2ccccc2CO[C@@H]1CN(C)C(=O)c1cc(Cl)cc(Cl)c1`, the AC50 was > 20 µM (inactive).

Turning to `C[C@H](CO)N1C[C@H](C)[C@H](CN(C)S(=O)(=O)c2ccc([N+](=O)[O-])cc2)OCc2ccccc2-c2c(n(C)c3ccccc23)C1=O`, the AC50 was 9.88 µM.

For the compound `COc1cc2c(cc1OC)C(=O)C(Br)CC2` (stereo not given), the AC50 was 2.97 µM.

For the compound `CC(=O)NC12CC3CC(C1)CC(C(=O)OCC(=O)c1ccc4c(c1)OCCO4)(C3)C2`, the AC50 was 6.44 µM.

For the compound `O=C(C1CCOCC1)N1CC(=O)N2[C@H](C1)[C@H](c1ccc(C#CCc3ccccc3)cc1)[C@@H]2CO`, the AC50 was 1.6 µM.

Take `Cc1c(C(=O)c2cccc3ccccc23)c2cccc3c2n1[C@H](CN1CCOCC1)CO3`: the AC50 is 10.2 µM.

For the compound `COc1cc(C(C)C)c2c(c1)S(=O)(=O)N(COc1cc(=O)n3cccc(OCCN4CCCCC4)c3n1)C2=O`, the AC50 is 3.4 µM.

Consider `CC(C)(C)CC(C)(C)c1ccc(OCCOCC[N+](C)(C)Cc2ccccc2)cc1`, for which the AC50 is 1.75 µM.

With `CC1OC(OC2CC(O)C3(CO)C4C(O)CC5(C)C(C6=CC(=O)OC6)CCC5(O)C4CCC3(O)C2)C(O)C(O)C1O` (stereo not given), the AC50 is 0.109 µM.

As for `C[C@@H]1C[C@@H]([C@H](O)CC2CC(=O)NC(=O)C2)C(=O)[C@@H](C)C1`, the concentration at half-maximal activity (AC50) was 0.199 µM.

Consider `NC(c1csc(NC(=O)Nc2cccc(Cl)c2)n1)c1ccccc1Cl` (stereo not given), for which the AC50 is 7.41 µM.

Turning to `C[C@@H]1CN([C@@H](C)CO)C(=O)c2c(c3ccccc3n2C)-c2ccccc2CO[C@H]1CN(C)Cc1ccccc1`, the AC50 is 5.53 µM.
